Experimental data from patent US10023528B2, “Branched 3-phenylpropionic acid derivatives and their use” (BAYER INTELLECTUAL PROPERTY GMBH, priority 2011, dated 2018).

How the values were obtained:
[1] = system: recombinant guanylate cyclase reporter cell line (CHO reporter cell); assay: Action at a recombinant guanylate cyclase reporter cell line; type: cell-based; details: CHO reporter cell in vitro; read-out: MEC (minimum effective concentration), sGC-activating activity in the CHO reporter cell
Experimental: The cellular action of the compounds according to the invention is determined at a recombinant guanylate cyclase reporter cell line, as described in F. Wunder et al., Anal. Biochem. 339, 104-112 (2005).

[2] = molecular target: soluble guanylate cyclase (sGC) (Rattus norvegicus (Rat), UniProt P20595); assay: Stimulation of sGC enzyme activity (PPi detection, luciferase); type: biochemical; details: sGC enzyme in vitro; for EC50: read-out: EC50 (concentration at 50% of maximum efficacy), activating action at the sGC enzyme
Sequence of soluble guanylate cyclase (sGC) (P20595 whole entry): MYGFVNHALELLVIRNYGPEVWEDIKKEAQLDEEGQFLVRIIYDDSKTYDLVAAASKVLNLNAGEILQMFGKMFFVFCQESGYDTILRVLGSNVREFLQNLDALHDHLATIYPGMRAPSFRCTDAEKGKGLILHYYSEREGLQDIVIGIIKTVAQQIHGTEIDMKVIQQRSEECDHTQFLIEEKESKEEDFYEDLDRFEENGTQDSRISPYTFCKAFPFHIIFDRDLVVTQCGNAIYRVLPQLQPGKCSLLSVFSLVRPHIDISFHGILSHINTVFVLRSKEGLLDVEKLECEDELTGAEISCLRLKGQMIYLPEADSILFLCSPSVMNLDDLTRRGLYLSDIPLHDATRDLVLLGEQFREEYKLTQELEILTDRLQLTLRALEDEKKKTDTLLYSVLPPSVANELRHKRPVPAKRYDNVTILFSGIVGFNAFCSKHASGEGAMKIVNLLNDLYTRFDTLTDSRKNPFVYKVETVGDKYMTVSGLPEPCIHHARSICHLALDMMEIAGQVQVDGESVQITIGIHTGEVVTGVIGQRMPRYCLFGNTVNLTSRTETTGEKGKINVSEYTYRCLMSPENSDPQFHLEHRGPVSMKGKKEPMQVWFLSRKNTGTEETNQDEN
Sequence of soluble guanylate cyclase (sGC) (P19686 whole entry partner): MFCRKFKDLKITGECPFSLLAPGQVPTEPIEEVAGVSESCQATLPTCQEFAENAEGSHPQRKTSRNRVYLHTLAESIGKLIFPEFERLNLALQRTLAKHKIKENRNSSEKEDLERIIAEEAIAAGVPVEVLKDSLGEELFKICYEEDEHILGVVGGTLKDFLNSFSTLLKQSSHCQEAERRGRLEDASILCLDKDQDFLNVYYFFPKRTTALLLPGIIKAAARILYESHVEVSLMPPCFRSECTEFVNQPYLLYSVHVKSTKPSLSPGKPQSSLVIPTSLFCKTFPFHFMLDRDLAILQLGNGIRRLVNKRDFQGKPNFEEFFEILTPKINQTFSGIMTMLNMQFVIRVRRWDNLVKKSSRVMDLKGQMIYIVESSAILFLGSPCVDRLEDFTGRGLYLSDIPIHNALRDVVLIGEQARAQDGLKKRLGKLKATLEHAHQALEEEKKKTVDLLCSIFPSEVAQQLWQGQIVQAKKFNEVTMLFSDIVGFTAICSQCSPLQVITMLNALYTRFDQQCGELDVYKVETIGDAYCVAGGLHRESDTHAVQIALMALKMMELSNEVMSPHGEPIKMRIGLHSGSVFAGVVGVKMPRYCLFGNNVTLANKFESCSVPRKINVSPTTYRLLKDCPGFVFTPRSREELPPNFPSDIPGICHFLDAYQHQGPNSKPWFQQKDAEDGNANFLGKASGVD
Experimental: Soluble guanylate cyclase (sGC) converts on stimulation GTP into cGMP and pyrophosphate (PPi). PPi is detected with the aid of the assay described below. The signal produced in the assay increases as the reaction progresses and serves as a measure of the sGC enzyme activity under the given stimulation.
To carry out the assay, 29 μl of enzyme solution [0-10 nM soluble guanylate cyclase (prepared according to Hönicka et al, J. Mol. Med. 77, 14-23 (1999)) in 50 mM TEA, 2 mM MgC2, 0.1% BSA (fraction V), 0.005% Brij®, pH 7.5] are initially introduced into a microplate, and 1 μl of the substance to be tested (as a serially diluted solution in DMSO) is added. The mixture is incubated at room temperature for 10 min. Then 20 μl of detection mix [1.2 nM Firefly Luciferase (Photinus pyralis luciferase, Promega), 29 μM dehydroluciferin (prepared according to Bitler & McElroy, Arch. Biochem. Biophys. 72, 358 (1957)), 122 μM luciferin (Promega), 153 μM ATP (Sigma) and 0.4 mM DTT (Sigma) in 50 mM TEA, 2 mM MgCl2, 0.1% BSA (fraction V), 0.005% Brij®, pH 7.5] are added. The enzyme reaction is started by adding 20 μl of substrate solution [1.25 mM guanosine 5′-triphosphate (Sigma) in 50 mM TEA, 2 mM MgC2, 0.1% BSA (fraction V), 0.005% Brij®, pH 7.5] and measured continuously in a luminometer. The extent of the stimulation by the substance to be tested can be determined relative to the signal of the unstimulated reaction.
The activation of haem-free guanylate cyclase is examined by addition of 25 μM of 1H-1,2,4-oxadiazolo[4,3-a]quinoxalin-1-one (ODQ) to the enzyme solution and subsequent incubation for 30 minutes and compared to the stimulation of the native enzyme.

[3] = system: saphenous artery rings; assay: Vasorelaxant effect in vitro (phenylephrine-contracted saphenous artery rings); type: cell-based; details: Oryctolagus cuniculus; rabbit saphenous artery rings, phenylephrine-induced contraction
Experimental: Rabbits are anaesthetized and sacrificed by intravenous injection of thiopental sodium (about 50 mg/kg) and exsanguinated. The saphenous artery is removed and divided into rings 3 mm wide. The rings are mounted singly on in each case a pair of triangular hooks open at the end and made of 0.3 mm-thick special wire (Remanium®). Each ring is placed under an initial tension in 5 ml organ baths with Krebs-Henseleit solution which is at 37° C., is gassed with carbogen and has the following composition: NaCl 119 mM; KCl 4.8 mM; CaCl2×2 H2O 1 mM; MgSO4×7 H2O 1.4 mM; KH2PO4 1.2 mM; NaHCO3 25 mM; glucose 10 mM; bovine serum albumin 0.001%. The force of contraction is detected with Statham UC2 cells, amplified and digitized via A/D converters (DAS-1802 HC, Keithley Instruments, Munich) and recorded in parallel on chart recorders. Contractions are induced by addition of phenylephrine.
After several (generally 4) control cycles, the substance to be investigated is added in each further run in increasing dosage, and the level of the contraction achieved under the influence of the test substance is compared with the level of the contraction reached in the last preceding run. The concentration necessary to reduce the contraction reached in the preceding control by 50% is calculated from this (IC50). The standard application volume is 5 μl. The proportion of DMSO in the bath solution corresponds to 0.1%.

Row | Compound | MEC (minimum effective concentration), activating action at the sGC enzyme [2] [nM] | EC50 [2] [nM] | IC50 [3] [nM] | minimal effective concentration [1] [µM]
1 | C[C@H](C(C(=O)Nc1cc(C(CC(=O)O)C2CC2(F)F)ccc1Cl)c1ccc(Cl)cc1)C(F)(F)F (stereo partly drawn) [Example 31, 3-(4-Chloro-3-{[(3R)-2-(4-chlorophenyl)-4,4,4-trifluoro-3-methylbutanoyl]amino}phenyl)-3-(2,2-difluorocyclopropyl)propanoic acid] |  |  |  | 0.003
2 | CCc1ccc([C@@H](C(=O)Nc2cc(C(CC(=O)O)C(C)C)ccc2Cl)[C@@H](C)C(F)(F)F)cc1 (stereo partly drawn) [Example 8] |  |  |  | 0.001
3 | CC(C(=O)O)C(c1ccc(Cl)c(NC(=O)C(c2ccc(Cl)cc2)[C@@H](C)C(F)(F)F)c1)C1CC1 (stereo partly drawn) [Example 30] | 1.7 | 640 |  | 0.01
4 | CC(C)c1ccc([C@@H](C(=O)Nc2cc(C(CC(=O)O)C(C)C)ccc2Cl)[C@@H](C)C(F)(F)F)cc1 (stereo partly drawn) [Example 10] | 0.5 | 10 | 131 | 0.0003
5 | C[C@H]([C@H](C(=O)Nc1cc(C(CC(=O)O)C2CC(F)(F)C2)ccc1Cl)c1ccc(Cl)cc1)C(F)(F)F (stereo partly drawn) [Example 28] |  |  |  | 0.03
6 | C[C@H]([C@H](C(=O)Nc1cc(C(CC(=O)O)C2CC2)ccc1Cl)c1ccc(Cl)cc1)C(F)(F)F (stereo partly drawn) [Example 23] |  |  |  | 0.003
7 | C[C@H]([C@H](C(=O)Nc1cc(C(C)(CC(=O)O)C2CCC2)ccc1Cl)c1ccc(Cl)cc1)C(F)(F)F (single isomer, unassigned) [Example 6] | 1.1 | 56 |  | 0.001
8 | CC(C)C(CC(=O)O)c1ccc(Cl)c(NC(=O)[C@H](c2ccc(Cl)c(F)c2)[C@@H](C)C(F)(F)F)c1 (stereo partly drawn) [Example 9] |  |  |  | 0.001
9 | C[C@H]([C@H](C(=O)Nc1cc(C(CC(=O)O)C2(C)CC2)ccc1Cl)c1ccc(Cl)cc1)C(F)(F)F (single isomer, unassigned) [Example 26] |  |  |  | 0.01
10 | COc1cc([C@@H](C(=O)Nc2cc(C(CC(=O)O)C(C)C)ccc2Cl)[C@@H](C)C(F)(F)F)ccc1Cl (stereo partly drawn) [Example 15] |  |  |  | 0.003
11 | CC(C)C(CC(=O)O)c1ccc(Cl)c(NC(=O)C(c2ccc(Cl)cc2)C2CCC(F)(F)C2)c1 (stereo not drawn) [Example 18] |  |  |  | 0.3
12 | C[C@H]([C@H](C(=O)Nc1cc(C(CC(=O)O)C2CCC2)ccc1Cl)c1ccc(Cl)cc1)C(F)(F)F (single isomer, unassigned; (+)) [Example 34] |  |  |  | 0.01
13 | CC(C)C(CC(=O)O)c1ccc(Cl)c(NC(=O)[C@H](c2ccc(F)cc2)[C@@H](C)C(F)(F)F)c1 (stereo partly drawn) [Example 11] |  |  |  | 0.003
14 | Cc1cc([C@@H](C(=O)Nc2cc(C(CC(=O)O)C(C)C)ccc2Cl)[C@@H](C)C(F)(F)F)ccc1Cl (stereo partly drawn) [Example 17] |  |  |  | 0.001
15 | C[C@H]([C@H](C(=O)Nc1cc(C(C)(CC(=O)O)C2CC2)ccc1Cl)c1ccc(Cl)cc1)C(F)(F)F (stereo partly drawn) [Example 7] |  |  |  | 0.3
16 | CC(C)C(CC(=O)O)c1ccc(Cl)c(NC(=O)C(c2ccc(Cl)cc2)C2CCC(F)(F)C2)c1 (stereo not drawn) [Example 20] |  |  |  | 1
17 | CC(C)C(CC(=O)O)c1ccc(Cl)c(NC(=O)C(c2ccc(Cl)cc2)C2CCC(F)(F)C2)c1 (stereo not drawn) [Example 19] |  |  |  | 0.03
18 | C[C@H]([C@H](C(=O)Nc1cc(C(C)(CC(=O)O)C2CCC2)ccc1Cl)c1ccc(Cl)cc1)C(F)(F)F (single isomer, unassigned) [Example 5] | 0.3 | 5.2 |  | 0.0003
19 | CC(C)C(CC(=O)O)c1ccc(Cl)c(NC(=O)[C@H](c2ccc(C(C)(C)C)cc2)[C@@H](C)C(F)(F)F)c1 (stereo partly drawn) [Example 14] | 0.5 | 8.4 | 269 | 0.0003
20 | C[C@H]([C@H](C(=O)Nc1cc(C(CC(=O)O)CC2CC2)ccc1Cl)c1ccc(Cl)cc1)C(F)(F)F (single isomer, unassigned) [Example 36] |  |  |  | 0.003
21 | CC(C)C(CC(=O)O)c1ccc(Cl)c(NC(=O)C(c2ccc(Cl)cc2)C2CCC(F)(F)C2)c1 (stereo not drawn) [Example 21] |  |  |  | 0.01
22 | CC(C)C(CC(=O)O)c1ccc(Cl)c(NC(=O)[C@H](c2ccc(C3CC3(F)F)cc2)[C@@H](C)C(F)(F)F)c1 (stereo partly drawn) [Example 13] | 0.5 | 14 |  | 0.0003

Continued, in another order:

Row | MEC (minimum effective concentration), activating action at the sGC enzyme [2] [nM] | EC50 [2] [nM] | IC50 [3] [nM] | Compound | minimal effective concentration [1] [µM]
23 | 1 | 11 |  | C[C@H]([C@H](C(=O)Nc1cc(C(CC(=O)O)CC2CC2)ccc1Cl)c1ccc(Cl)cc1)C(F)(F)F (single isomer, unassigned) [Example 35] | 0.0003
24 | 4 | 89 |  | CC(C)C(CC(=O)O)c1ccc(Cl)c(NC(=O)[C@H](c2ccc(Cl)cc2)[C@@H](C)C(F)(F)F)c1 (single isomer, unassigned; (+)) [Example 2] | 0.0065
25 | 1.1 | 17 |  | CC(C)C(CC(=O)O)c1ccc(Cl)c(NC(=O)C(c2ccc(CC(F)(F)F)cc2)C(C)C(F)(F)F)c1 (stereo not drawn) [Example 12] | 0.001
26 | 0.4 | 11 |  | C[C@H]([C@H](C(=O)Nc1cc(C(CC(=O)O)C2CCC2)ccc1Cl)c1ccc(Cl)cc1)C(F)(F)F (single isomer, unassigned; (+)) [Example 33] | 0.001
27 | 5.1 | 220 |  | COC(C)(C)C(CC(=O)O)c1ccc(Cl)c(NC(=O)[C@H](c2ccc(Cl)cc2)[C@@H](C)C(F)(F)F)c1 (stereo partly drawn) [Example 25] | 0.01
28 | 2.4 | 110 |  | CC(C)C(C)(CC(=O)O)c1ccc(Cl)c(NC(=O)[C@H](c2ccc(Cl)cc2)[C@@H](C)C(F)(F)F)c1 (single isomer, unassigned) [Example 4] | 0.003
29 | 1.7 | 68 |  | C[C@H]([C@H](C(=O)Nc1cc(C(CC(=O)O)C2(F)CC2)ccc1Cl)c1ccc(Cl)cc1)C(F)(F)F (stereo partly drawn) [Example 27] | 0.003
30 |  |  | 767 | Cc1ccc([C@@H](C(=O)Nc2cc(C(CC(=O)O)C(C)C)ccc2Cl)[C@@H](C)C(F)(F)F)cc1 (stereo partly drawn) [Example 16] | 0.003
31 | 1 | 37 | 801 | CC(C)C(C)(CC(=O)O)c1ccc(Cl)c(NC(=O)[C@H](c2ccc(Cl)cc2)[C@@H](C)C(F)(F)F)c1 (single isomer, unassigned) [Example 3] | 0.0003
32 | 1 | 22 |  | CC(C)C(CC(=O)O)c1ccc(Cl)c(NC(=O)[C@H](c2ccc(Cl)cc2)[C@@H](C)C(F)(F)F)c1 (single isomer, unassigned; (+)) [Example 1] | 0.003
